Measurements published in PubChem BioAssay AID2060910 (Molecular Pharmacology Branch, DTP, NCI, 2025).

Test system: 242566-281-R-J2-PDC complex spheroid viability
Assay: Anticancer human tumor 242566-281-R-J2-PDC patient-derived pancreatic carcinoma cell line growth inhibition [RAS]
Settings: for IC50: curve of first compound; for viability, T/C: stronger effect = lower value
Method in brief: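 Multi-cell-type spheroids: tumor cells plus HUVEC endothelial cells and mesenchymal stem cells. RAS-pathway inhibitors were combined with targeted agents, each dosed in half-log steps down from clinical Cmax, or from 10 microM when Cmax was unknown.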

[1] = second compound 0.000949 µM, first compound 0.00316 µM
[2] = second compound 0.000949 µM, first compound 0.01 µM
[3] = second compound 0.000949 µM, first compound 0.0316 µM
[4] = second compound 0.000949 µM, first compound 0.1 µM
[5] = second compound 0.000949 µM, first compound 0.316 µM
[6] = second compound 0.000949 µM, first compound 1 µM
[7] = second compound 0.003 µM, first compound 0.00316 µM
[8] = second compound 0.003 µM, first compound 0.01 µM
[9] = second compound 0.003 µM, first compound 0.0316 µM
[10] = second compound 0.003 µM, first compound 0.1 µM
[11] = second compound 0.003 µM, first compound 0.316 µM
[12] = second compound 0.003 µM, first compound 1 µM
[13] = second compound 0.00949 µM, first compound 0.00316 µM
[14] = second compound 0.00949 µM, first compound 0.01 µM
[15] = second compound 0.00949 µM, first compound 0.0316 µM
[16] = second compound 0.00949 µM, first compound 0.1 µM
[17] = second compound 0.00949 µM, first compound 0.316 µM
[18] = second compound 0.00949 µM, first compound 1 µM
[19] = second compound 0.03 µM, first compound 0.00316 µM
[20] = second compound 0.03 µM, first compound 0.01 µM
[21] = second compound 0.03 µM, first compound 0.0316 µM
[22] = second compound 0.03 µM, first compound 0.1 µM
[23] = second compound 0.03 µM, first compound 0.316 µM
[24] = second compound 0.03 µM, first compound 1 µM
[25] = second compound 0.0949 µM, first compound 0.00316 µM
[26] = second compound 0.0949 µM, first compound 0.01 µM
[27] = second compound 0.0949 µM, first compound 0.0316 µM
[28] = second compound 0.0949 µM, first compound 0.1 µM
[29] = second compound 0.0949 µM, first compound 0.316 µM
[30] = second compound 0.0949 µM, first compound 1 µM
[31] = second compound 0.3 µM, first compound 0.00316 µM
[32] = second compound 0.3 µM, first compound 0.01 µM
[33] = second compound 0.3 µM, first compound 0.0316 µM
[34] = second compound 0.3 µM, first compound 0.1 µM
[35] = second compound 0.3 µM, first compound 0.316 µM
[36] = second compound 0.3 µM, first compound 1 µM
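Note: spheroids exposed to compound for 7 days before readout.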
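Throughout, for viability, T/C: 100% = DMSO vehicle control wells.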

Compound `C=CC(=O)N1CCN(c2nc(OCC3CCCN3C)nc3c(F)c(-c4nc(N)cc(C)c4C(F)(F)F)c(Cl)cc23)C(C)C1` (stereo unspecified) + CCn1c(-c2cccnc2C(C)OC)c2c3cc(ccc31)N1CCOC(CC(NC(=O)C(C(C)C)N(C)C(=O)C3(F)CCN(C(=O)C#CC(C)(C)N(C)C)CC3)C(=O)N3CCCC(N3)C(=O)OCC(C)(C)C2)C1 has an IC50 (second compound 0.000949 µM) of over 1000 nM, an IC50 (second compound 0.003 µM) of over 1000 nM and an IC50 (second compound 0.00949 µM) of over 1000 nM. It also gave an IC50 (second compound 0.03 µM) of over 1000 nM, an IC50 (second compound 0.0949 µM) of over 1000 nM and an IC50 (second compound 0.3 µM) of over 1000 nM. For the same compound, the viability, T/C [1] was 111%, the viability, T/C [2] was 98.5% and the viability, T/C [3] was 88.2%. The viability, T/C [4] was 113%, the viability, T/C [5] was 93.8% and the viability, T/C [6] was 79.2%. For the same compound, the viability, T/C [7] was 115%, the viability, T/C [8] was 93.2% and the viability, T/C [9] was 99.8%. The viability, T/C [10] was 84.8%, the viability, T/C [11] was 95.4% and the viability, T/C [12] was 86.7%. It also gave a viability, T/C [13] of 103%, a viability, T/C [14] of 87% and a viability, T/C [15] of 79.5%. It also gave a viability, T/C [16] of 76%, a viability, T/C [17] of 93.1% and a viability, T/C [18] of 83.9%. The viability, T/C [19] was 98.6%, the viability, T/C [20] was 110% and the viability, T/C [21] was 97.5%. For the same compound, the viability, T/C [22] was 92.7%, the viability, T/C [23] was 78% and the viability, T/C [24] was 99.8%. The viability, T/C [25] was 86.6%, the viability, T/C [26] was 93.5% and the viability, T/C [27] was 92.6%. For the same compound, the viability, T/C [28] was 86.9%, the viability, T/C [29] was 87% and the viability, T/C [30] was 90.5%. It also gave a viability, T/C [31] of 85.7%, a viability, T/C [32] of 87.3% and a viability, T/C [33] of 89.2%. It also gave a viability, T/C [34] of 75.7%, a viability, T/C [35] of 95.1% and a viability, T/C [36] of 81.7%.

Compound `C=CC(=O)N1CCN(c2nc(OCC3CCCN3C)nc3c(F)c(-c4nc(N)cc(C)c4C(F)(F)F)c(Cl)cc23)C(C)C1` (stereo unspecified) + CCn1c(-c2cc(N3CCN(C)CC3)cnc2C(C)OC)c2c3cc(ccc31)-c1csc(n1)CC(NC(=O)C1CC1C)C(=O)N1CCCC(N1)C(=O)OCC(C)(C)C2 has an IC50 (second compound 0.000949 µM) of over 1000 nM, an IC50 (second compound 0.003 µM) of over 1000 nM and an IC50 (second compound 0.00949 µM) of under 3.16 nM. It also gave an IC50 (second compound 0.03 µM) of under 3.16 nM, an IC50 (second compound 0.0949 µM) of under 3.16 nM and an IC50 (second compound 0.3 µM) of under 3.16 nM. The viability, T/C [1] was 91.5%, the viability, T/C [2] was 90.3% and the viability, T/C [3] was 69.8%. For the same compound, the viability, T/C [4] was 96.7%, the viability, T/C [5] was 86.9% and the viability, T/C [6] was 59.6%. For the same compound, the viability, T/C [7] was 80.6%, the viability, T/C [8] was 62.2% and the viability, T/C [9] was 67.8%. For the same compound, the viability, T/C [10] was 70.5%, the viability, T/C [11] was 76.5% and the viability, T/C [12] was 51.7%. It also gave a viability, T/C [13] of 46.6%, a viability, T/C [14] of 39.8% and a viability, T/C [15] of 44.3%. It also gave a viability, T/C [16] of 47.3%, a viability, T/C [17] of 43.1% and a viability, T/C [18] of 41.3%. For the same compound, the viability, T/C [19] was 33.7%, the viability, T/C [20] was 32.1% and the viability, T/C [21] was 30.3%. The viability, T/C [22] was 30.5%, the viability, T/C [23] was 23.8% and the viability, T/C [24] was 26.9%. The viability, T/C [25] was 25.1%, the viability, T/C [26] was 22.6% and the viability, T/C [27] was 23.1%. It also gave a viability, T/C [28] of 24.5%, a viability, T/C [29] of 20.1% and a viability, T/C [30] of 26%. It also gave a viability, T/C [31] of 21.6%, a viability, T/C [32] of 20.6% and a viability, T/C [33] of 21.7%. It also gave a viability, T/C [34] of 20.6%, a viability, T/C [35] of 19.8% and a viability, T/C [36] of 20.2%.

Work on `CC(C)n1nc(-c2ccc3oc(N)nc3c2)c2c(N)ncnc21` + CCn1c(-c2cc(N3CCN(C)CC3)cnc2C(C)OC)c2c3cc(ccc31)-c1csc(n1)CC(NC(=O)C1CC1C)C(=O)N1CCCC(N1)C(=O)OCC(C)(C)C2 yielded an IC50 (second compound 0.000949 µM) of 29.9 nM, an IC50 (second compound 0.003 µM) of 7.15 nM and an IC50 (second compound 0.00949 µM) of under 0.316 nM. It also gave an IC50 (second compound 0.03 µM) of under 0.316 nM, an IC50 (second compound 0.0949 µM) of under 0.316 nM and an IC50 (second compound 0.3 µM) of under 0.316 nM. For the same compound, the viability, T/C (second compound 0.000949 µM, first compound 0.000316 µM) was 81.6%, the viability, T/C (second compound 0.000949 µM, first compound 0.001 µM) was 91.5% and the viability, T/C [1] was 61.7%. For the same compound, the viability, T/C [2] was 71.3%, the viability, T/C [3] was 48% and the viability, T/C [4] was 27.4%. It also gave a viability, T/C (second compound 0.003 µM, first compound 0.000316 µM) of 75.8%, a viability, T/C (second compound 0.003 µM, first compound 0.001 µM) of 62.1% and a viability, T/C [7] of 54.2%. For the same compound, the viability, T/C [8] was 48.7%, the viability, T/C [9] was 40.9% and the viability, T/C [10] was 20.6%. For the same compound, the viability, T/C (second compound 0.00949 µM, first compound 0.000316 µM) was 48.5%, the viability, T/C (second compound 0.00949 µM, first compound 0.001 µM) was 38.4% and the viability, T/C [13] was 36.1%. The viability, T/C [14] was 30.9%, the viability, T/C [15] was 28.2% and the viability, T/C [16] was 15.8%. It also gave a viability, T/C (second compound 0.03 µM, first compound 0.000316 µM) of 28.5%, a viability, T/C (second compound 0.03 µM, first compound 0.001 µM) of 29.8% and a viability, T/C [19] of 26.3%. The viability, T/C [20] was 19.1%, the viability, T/C [21] was 11.9% and the viability, T/C [22] was 10.4%. The viability, T/C (second compound 0.0949 µM, first compound 0.000316 µM) was 21.5%, the viability, T/C (second compound 0.0949 µM, first compound 0.001 µM) was 18.4% and the viability, T/C [25] was 18.9%. For the same compound, the viability, T/C [26] was 13.8%, the viability, T/C [27] was 7.41% and the viability, T/C [28] was 6.96%. It also gave a viability, T/C (second compound 0.3 µM, first compound 0.000316 µM) of 18.5%, a viability, T/C (second compound 0.3 µM, first compound 0.001 µM) of 16.6% and a viability, T/C [31] of 15.2%. It also gave a viability, T/C [32] of 11.5%, a viability, T/C [33] of 7.41% and a viability, T/C [34] of 5.69%.
